Test [1] has as its target T1, Human GPR40 (Homo sapiens, UniProt O14842). The test is described as follows: FLIPR assay: agonist-induced calcium mobilization in GPR40/CHO NFAT BLA cells. In kind it is cell-based. Also on record: expressed in transfected cells; host or cells: CHO cells stably expressing NFAT BLA (beta-lactamase). An excerpt:
(§1) Human and mouse GPR40 stable cell-lines were generated in CHO cells stably expressing NFAT BLA (Beta-lactamase). A human GPR40 stable cell-line was generated in HEK cells stably expressing the aequorin expressing reporter. The expression plasmids were transfected using lipofectamine, LIFE TECHNOLOGIES (Carlsbad, Calif.), following manufacturer's instructions. Stable cell-lines were generated following drug selection.
FLIPR (Fluorimetric Imaging Plate Reader, Molecular Devices) assays were performed to measure agonist-induced calcium mobilization of the stable clones. For the FLIPR assay, one day before assay, GPR40/CHO NFAT BLA cells were seeded into black-wall-clear-bottom 384-well plates (Costar) at 1.4×10e4 cells/20 μL medium/well. The cells were incubated with 20 μl/well of the assay buffer (HBSS, 0.1% BSA, 20 mM HEPES, 2.5 mM probenecid, pH 7.4) containing 8 μM fluo-4, AM, 0.08% pluronic acid at room temperature for 100 minutes. Fluorescence output was measured using FLIPR. Compounds were dissolved in DMSO and diluted to desired concentrations with assay buffer. 13.3 μL/well of compound solution was added. The activities of the compounds in the examples have EC50 (effective concentration of compound to afford 50% of the maximum observed fluorescence) values listed in Table I.
For orientation: Calcium assays in cells follow changes in intracellular calcium, usually with a dye or a luminescent sensor.

Test [2] concerns the target T1, Human GPR40. The test is described as follows: Inositol phosphate turnover (IP1) assay in HEK cells stably expressing human GPR40. In kind it is cell-based. Set-up: expressed in transfected cells. The conditions noted are these: HEK cells stably expressing human GPR40, 3H-inositol labeling, 60 min compound incubation. How it is done: as §1
The assay is performed in a 96-well format. HEK cells stably expressing human GPR40 are plated to be 60-80% confluent within 72 h. After 72 h, the plates are aspirated and the cells washed with inositol-free DMEM (ICN). The wash media is replaced with 150 μL of 3H-inositol labeling media (inositol-free media containing 0.4% human albumin or 0.4% mouse albumin, 1× pen/strep antibiotics, glutamine, 25 mM HEPES to which is added 3H-myo-inositol NEN #NET114A 1 mCi/mL, 25 Ci/mmol diluted 1:150 in loading media with a final specific radioactivity of 1 μCi/150 μL). Alternatively, the human and mouse albumin can be added after the overnight labeling step before the addition of LiCl.
The assay is typically run the next day after 18 h labeling. On the day of the assay, 5 μL of 300 mM LiCl is added to all wells and incubated at 37 degrees for 20 min. 0.75 μL of 200× compounds are added and incubated with the cells for 60 min at 37 degrees. The media is then aspirated off and the assay terminated with the addition of 60 μL 10 mM formic acid. The cells are lysed for 60 min at room temperature. 15-30 μL of lysate is mixed with 70 μL/1 mg YSi SPA beads AMERSHAM (United Kingdom) in clear bottom Isoplates. The plates are shaken for 2 h at room temperature. Beads are allowed to settle and the plates are counted in the Wallac MICROBETA instrument. The activities of the compounds in the examples have EC50 (effective concentration of compound to afford 50% of the maximum observed […]) values listed in Table I.

As a reminder, the pEC50 is the EC50 on a negative log10 scale, so that one unit is a factor of ten.

pEC50: −log10 of the molar value.

T1 sequence (O14842 whole entry): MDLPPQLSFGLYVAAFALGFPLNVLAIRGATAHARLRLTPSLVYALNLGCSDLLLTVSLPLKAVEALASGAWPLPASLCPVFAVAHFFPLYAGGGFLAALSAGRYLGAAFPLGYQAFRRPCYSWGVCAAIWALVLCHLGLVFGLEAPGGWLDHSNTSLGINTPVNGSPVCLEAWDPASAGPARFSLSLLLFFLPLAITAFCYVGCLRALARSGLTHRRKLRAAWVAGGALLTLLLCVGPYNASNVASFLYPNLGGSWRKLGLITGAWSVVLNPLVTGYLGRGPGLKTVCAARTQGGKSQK

Take `Cc1cc(OCCCS(C)(=O)=O)ncc1-c1ccc(F)c(COc2ccc3c(c2)C[C@H]2[C@H](C(=O)O)[C@@H]32)c1` [Example 19, (1S,1aS,6aR)-4-[(2-fluoro-5-{4-methyl-6-[3-(methylsulfonyl)propoxy]pyridin-3-yl}benzyl)oxy]-1,1a,6,6a-tetrahydrocyclopropa[a]indene-1-carboxylic acid]: the pEC50 on Human GPR40 [1] was 8.26. Consider `Cc1cc(OCCCS(C)(=O)=O)ncc1-c1cccc(COc2ccc3c(c2)C[C@H]2[C@H](C(=O)O)[C@@H]32)c1C` [Example 8, 4-{3-[6-(3-Methanesulfonyl-propoxy)-4-methyl-pyridin-3-yl]-2-methyl-benzyloxy}-1,1a,6,6a-tetrahydro-cyclopropa[a]indene-1-carboxylic acid], for which the pEC50 on Human GPR40 [1] is 6.63. In the case of `Cc1nc(N2CCC(C#N)(c3ccccc3)CC2)nc(C)c1-c1ccc(F)c(COc2ccc3c(c2)C[C@H]2[C@H](C(=O)O)[C@@H]32)c1` [Example 44, (1S,1aS,6aR)-4-((5-(2-(4-cyano-4-phenylpiperidin-1-yl)-4,6-dimethylpyrimidin-5-yl)-2-fluorobenzyl)oxy)-1,1a,6,6a-tetrahydrocyclopropa[a]indene-1-carboxylic acid], the pEC50 is 7.63 at Human GPR40 [1] and 6.65 on Human GPR40 [2].

On to `Cc1nc(N2CCC(CNS(C)(=O)=O)C2)ccc1-c1ccc(F)c(COc2ccc3c(c2)C[C@H]2[C@H](C(=O)O)[C@@H]32)c1` (stereo partly drawn) [Example 47, (1S,1aS,6aR)-4-((2-fluoro-5-(2-methyl-6-(3-(methylsulfonamidomethyl)pyrrolidin-1-yl)pyridin-3-yl)benzyl)oxy)-1,1a,6,6a-tetrahydrocyclopropa[a]indene-1-carboxylic acid], for which the pEC50 on Human GPR40 [1] is 7.75; on Human GPR40 [2], 7.80. `Cc1c(-c2ccc(F)c(COc3ccc4c(c3)C[C@H]3[C@H](C(=O)O)[C@@H]43)c2)ccc2nc(-c3ccncc3)sc12` [Example 52, (1S,1aS,6aR)-4-((2-fluoro-5-(7-methyl-2-(pyridin-4-yl)benzo[d]thiazol-6-yl)benzyl)oxy)-1,1a,6,6a-tetrahydrocyclopropa[a]indene-1-carboxylic acid]: the pEC50 was 7.45 on Human GPR40 [1] and 7.52 at Human GPR40 [2]. With `Cc1nc(OC2CCN(S(C)(=O)=O)CC2)ccc1-c1ccc(F)c(COc2ccc3c(c2)C[C@H]2[C@H](C(=O)O)[C@@H]32)c1` [Example 49, (1S,1aS,6aR)-4-((2-fluoro-5-(2-methyl-6-((1-(methylsulfonyl)piperidin-4-yl)oxy)pyridin-3-yl)benzyl)oxy)-1,1a,6,6a-tetrahydrocyclopropa[a]indene-1-carboxylic acid], the pEC50 is 7.54 at Human GPR40 [1] and 7.71 on Human GPR40 [2].

For the molecule `Cc1cc(NCCCS(C)(=O)=O)ncc1-c1ccc(F)c(COc2ccc3c(c2)C[C@H]2[C@H](C(=O)O)[C@@H]32)c1` [Example 14, 4-{2-Fluoro-5-[6-(3-methanesulfonyl-propylamino)-4-methyl-pyridin-3-yl]-benzyloxy}-1,1a,6,6a-tetrahydro-cyclopropa[a]indene-1-carboxylic acid], the pEC50 is 6.84 on Human GPR40 [1] and 7.08 at Human GPR40 [2]. `CS(=O)(=O)CCCOc1ccc(-c2cccc(COc3ccc4c(c3)C[C@H]3[C@H](C(=O)O)[C@@H]43)c2)c(CO)n1` [Example 18, 4-{3-[2-Hydroxymethyl-6-(3-methanesulfonyl-propoxy)-pyridin-3-yl]-benzyloxy}-1,1a,6,6a-tetrahydro-cyclopropa[a]indene-1-carboxylic acid]: the pEC50 at Human GPR40 [1] was 6.69. The same measure, in the same setting: then `Cc1cc(OCCCS(C)(=O)=O)nc(C)c1-c1cccc(COc2ccc3c(c2)C[C@H]2[C@H](C(=O)O)[C@@H]32)c1C` [Example 7, 4-{3-[6-(3-Methane-sulfonyl-propoxy)-2,4-dimethyl-pyridin-3-yl]-2-methyl-benzyloxy}-1,1a,6,6a-tetrahydro-cyclopropa[a]indene-1-carboxylic acid], with 7.01.

As to `Cc1cc(NCCCS(C)(=O)=O)ncc1-c1cccc(COc2ccc3c(c2)C[C@H]2[C@H](C(=O)O)[C@@H]32)c1C` [Example 16, 4-{3-[6-(3-Methanesulfonyl-propylamino)-4-methyl-pyridin-3-yl]-2-methyl-benzyloxy}-1,1a,6,6a-tetrahydro-cyclopropa[a]indene-1-carboxylic acid], at Human GPR40 [1], the pEC50 is 5.37. Same read-out and setting: in the case of `Cc1nc(NCCCS(C)(=O)=O)ccc1-c1cccc(COc2ccc3c(c2)C[C@H]2[C@H](C(=O)O)[C@@H]32)c1` [Example 12, 4-{3-[6-(3-Methanesulfonyl-propylamino)-2-methyl-pyridin-3-yl]-benzyloxy}-1,1a,6,6a-tetrahydro-cyclopropa[a]indene-1-carboxylic acid] it was 6.91; in that of `Cc1cc(OC2CCS(=O)(=O)CC2)ncc1-c1ccc(F)c(COc2ccc3c(c2)C[C@H]2[C@H](C(=O)O)[C@@H]32)c1` [Example 10, 4-{5-[6-(1,1-Dioxo-hexahydro-l16-thiopyran-4-yloxy)-4-methyl-pyridin-3-yl]-2-fluoro-benzyloxy}-1,1a,6,6a-tetrahydro-cyclopropa[a]indene-1-carboxylic acid], 7.03. Consider `Cc1cc(OC2CCS(=O)(=O)CC2)nc(C)c1-c1cccc(COc2ccc3c(c2)C[C@H]2[C@H](C(=O)O)[C@@H]32)c1` [Example 13, 4-{3-[6-(1,1-Dioxo-hexahydro-l16-thiopyran-4-yloxy)-2,4-dimethyl-pyridin-3-yl]-benzyloxy}-1,1a,6,6a-tetrahydro-cyclopropa[a]indene-1-carboxylic acid], for which, at Human GPR40 [1], the pEC50 is 6.99. Same read-out and setting: in the case of `Cc1cc(OCCCS(C)(=O)=O)nc(C)c1-c1ccc(F)c(COc2ccc3c(c2)C[C@H]2[C@H](C(=O)O)[C@@H]32)c1F` [Example 21, 4-(2,6-difluoro-3-[6-(3-methanesulfonyl-propoxy)-2,4-dimethyl-pyridin-3-yl]-benzyloxy)-1,1a,6,6a-tetrahydro-cyclopropa[a]indene-1-carboxylic acid] it was 7.32. Still for that read-out and setting: in the case of `Cc1nc(OC2CCS(=O)(=O)CC2)ccc1-c1cccc(COc2ccc3c(c2)C[C@H]2[C@H](C(=O)O)[C@@H]32)c1C` [Example 17, 4-{3-[6-(1,1-Dioxo-hexahydro-l16-thiopyran-4-yloxy)-2-methyl-pyridin-3-yl]-2-methyl-benzyloxy}-1,1a,6,6a-tetrahydro-cyclopropa[a]indene-1-carboxylic acid] it was 6.60; in that of `Cc1cc(OC2CCS(=O)(=O)CC2)nc(C)c1-c1ccc(F)c(COc2ccc3c(c2)C[C@H]2[C@H](C(=O)O)[C@@H]32)c1` [Example 9, 4-{5-[6-(1,1-Dioxo-hexahydro-l16-thiopyran-4-yloxy)-2,4-dimethyl-pyridin-3-yl]-2-fluoro-benzyloxy}-1,1a,6,6a-tetrahydro-cyclopropa[a]indene-1-carboxylic acid], 7.00. Still for that read-out and setting: then `Cc1nc(N2CCC(S(C)(=O)=O)CC2)ccc1-c1cccc(COc2ccc3c(c2)C[C@H]2[C@H](C(=O)O)[C@@H]32)c1` [Example 3, (1S,1aS,6aR)-4-((3-(2-Methyl-6-(4-(methylsulfonyl)piperidin-1-yl)pyridin-3-yl)benzyl)oxy)-1,1a,6,6a-tetrahydrocyclopropa[a]indene-1-carboxylic acid], with 7.22; and `Cc1cc(OCCCS(C)(=O)=O)ncc1-c1ccc(F)c(COc2ccc3c(c2)C[C@H]2[C@H](C(=O)O)[C@@H]32)c1F` [Example 22, 4-(2,6-difluoro-3-[6-(3-methanesulfonyl-propoxy)-4-methyl-pyridin-3-yl]-benzyloxy)-1,1a,6,6a-tetrahydro-cyclopropa[a]indene-1-carboxylic acid], with 7.23. As for `Cc1cc(NCCCS(C)(=O)=O)ncc1-c1cccc(COc2ccc3c(c2)C[C@H]2[C@H](C(=O)O)[C@@H]32)c1` [Example 15, 4-{3-[6-(3-Methanesulfonyl-propylamino)-4-methyl-pyridin-3-yl]-benzyloxy}-1,1a,6,6a-tetrahydro-cyclopropa[a]indene-1-carboxylic acid], the pEC50 on Human GPR40 [1] was 6.50.

The record behind these values is patent publication US9834563B2 (Merck Sharp & Dohme Corp., priority 2013, dated 2017).
